Data from patent publication US20250136595A1, “ACYLATED HETEROCYCLIC QUINAZOLINE DERIVATIVES AS INHIBITORS OF ERBB2” (Enliven Inc., priority 2022, published 2025).

Tests used:
Ba/F3 ERBB2 YVMA = Ba/F3 ERBB2 YVMA (Homo sapiens, UniProt P04626, DUP772-775, cells depend on it); test: Cell viability assay (CellTiter Glo) in Ba/F3 cells engineered to express ERBB2 YVMA; type: cell-based, mouse; conditions: Ba/F3 cells expressing human ERBB2 YVMA mutant, 72 hours, % viability, read-out: Ba/F3 ERBB2 YVMA IC50
Chain of Ba/F3 ERBB2 YVMA (P04626 with tags, fused parts or gaps DUP772-775): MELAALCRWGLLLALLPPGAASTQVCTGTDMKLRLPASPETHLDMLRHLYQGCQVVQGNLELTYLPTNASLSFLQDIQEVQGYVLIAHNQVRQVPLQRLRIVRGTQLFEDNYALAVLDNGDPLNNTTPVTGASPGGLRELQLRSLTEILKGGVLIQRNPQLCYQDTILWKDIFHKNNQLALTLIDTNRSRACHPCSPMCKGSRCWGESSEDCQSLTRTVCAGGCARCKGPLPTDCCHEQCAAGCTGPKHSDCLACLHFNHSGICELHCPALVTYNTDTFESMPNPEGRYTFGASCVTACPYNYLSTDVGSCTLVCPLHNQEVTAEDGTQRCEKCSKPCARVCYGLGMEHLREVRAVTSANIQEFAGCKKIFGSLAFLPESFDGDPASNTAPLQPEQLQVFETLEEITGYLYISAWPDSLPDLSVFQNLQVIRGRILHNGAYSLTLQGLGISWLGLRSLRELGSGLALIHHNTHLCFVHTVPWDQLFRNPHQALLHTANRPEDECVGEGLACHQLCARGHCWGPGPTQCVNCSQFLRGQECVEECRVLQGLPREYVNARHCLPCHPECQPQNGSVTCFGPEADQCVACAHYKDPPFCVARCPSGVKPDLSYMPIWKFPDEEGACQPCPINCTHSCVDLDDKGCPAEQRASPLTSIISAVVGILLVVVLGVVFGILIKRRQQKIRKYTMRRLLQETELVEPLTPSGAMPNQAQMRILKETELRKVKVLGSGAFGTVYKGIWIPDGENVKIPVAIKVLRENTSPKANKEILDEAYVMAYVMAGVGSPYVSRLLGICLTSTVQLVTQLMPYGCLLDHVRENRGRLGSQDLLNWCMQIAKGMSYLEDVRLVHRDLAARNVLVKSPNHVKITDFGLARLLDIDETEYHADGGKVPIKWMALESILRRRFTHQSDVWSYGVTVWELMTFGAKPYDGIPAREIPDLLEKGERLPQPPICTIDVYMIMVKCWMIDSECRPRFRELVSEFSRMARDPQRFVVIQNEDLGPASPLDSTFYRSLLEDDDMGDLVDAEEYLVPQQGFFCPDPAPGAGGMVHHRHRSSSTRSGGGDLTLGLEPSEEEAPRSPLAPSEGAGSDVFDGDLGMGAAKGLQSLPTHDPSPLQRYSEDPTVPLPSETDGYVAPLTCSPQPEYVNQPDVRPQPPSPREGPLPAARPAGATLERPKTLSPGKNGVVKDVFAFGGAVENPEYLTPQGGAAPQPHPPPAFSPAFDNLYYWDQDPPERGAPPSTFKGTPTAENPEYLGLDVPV
In short: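 IL-3-independent mouse Ba/F3 line stably transduced with human ERBB2 YVMA, seeded at 3000 cells/well, exposed to serially diluted compound (≤0.1% DMSO) for 72 h at 37° C. ATP read by CellTiter Glo luminescence, normalised to DMSO and media-only controls; sigmoidal nonlinear regression fit.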

[1] = biological target: T1, phosphorylated EGFR (pEGFR) (Homo sapiens, UniProt P00533); test: Detection of phosphorylated EGFR (pEGFR) in EGF-stimulated A431 cells (AlphaLISA); type: cell-based; conditions: A431 cells (10% FBS), 4 hours incubation, EGF 30 ng/mL for 10 minutes
T1 construct: performed to measure phosphorylated EGFR levels using A431 cells; endogenous in cells; host or cells: A431
T1 sequence (P00533 25-1210): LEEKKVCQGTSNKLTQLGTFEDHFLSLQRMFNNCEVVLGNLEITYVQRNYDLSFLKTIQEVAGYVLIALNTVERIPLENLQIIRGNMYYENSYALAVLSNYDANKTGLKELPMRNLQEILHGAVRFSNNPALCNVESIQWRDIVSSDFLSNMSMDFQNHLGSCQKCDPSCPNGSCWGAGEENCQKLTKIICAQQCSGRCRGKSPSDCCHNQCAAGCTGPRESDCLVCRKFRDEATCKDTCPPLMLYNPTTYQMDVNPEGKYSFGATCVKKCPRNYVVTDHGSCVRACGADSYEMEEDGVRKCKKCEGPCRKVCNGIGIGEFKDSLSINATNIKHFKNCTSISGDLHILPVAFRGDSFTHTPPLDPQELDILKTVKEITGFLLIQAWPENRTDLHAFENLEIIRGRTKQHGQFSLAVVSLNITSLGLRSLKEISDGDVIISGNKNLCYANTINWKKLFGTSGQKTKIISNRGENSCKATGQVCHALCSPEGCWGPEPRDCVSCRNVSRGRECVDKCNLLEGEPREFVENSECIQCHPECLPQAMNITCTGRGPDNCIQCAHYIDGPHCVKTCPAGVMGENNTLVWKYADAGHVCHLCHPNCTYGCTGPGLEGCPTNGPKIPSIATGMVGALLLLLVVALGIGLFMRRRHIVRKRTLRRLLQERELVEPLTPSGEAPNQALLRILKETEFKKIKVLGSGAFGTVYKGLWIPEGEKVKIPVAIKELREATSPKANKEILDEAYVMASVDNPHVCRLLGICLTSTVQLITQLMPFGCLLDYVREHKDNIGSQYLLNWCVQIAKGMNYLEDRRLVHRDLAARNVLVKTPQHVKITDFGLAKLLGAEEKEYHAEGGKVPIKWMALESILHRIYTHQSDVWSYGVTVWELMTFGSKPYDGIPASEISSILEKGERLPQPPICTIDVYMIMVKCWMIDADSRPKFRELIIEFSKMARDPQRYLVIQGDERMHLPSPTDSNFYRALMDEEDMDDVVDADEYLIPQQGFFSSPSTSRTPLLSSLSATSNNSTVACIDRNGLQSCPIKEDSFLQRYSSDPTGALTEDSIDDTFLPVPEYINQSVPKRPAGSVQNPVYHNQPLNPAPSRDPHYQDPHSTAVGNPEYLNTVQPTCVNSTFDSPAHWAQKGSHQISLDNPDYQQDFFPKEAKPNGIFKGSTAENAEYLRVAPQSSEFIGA
In short: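 Cells in 10% FBS treated with compound 4 h at 37° C., then stimulated 10 min with 30 ng/mL EGF, lysed, and pEGFR measured by AlphaLISA. Inhibition normalized to DMSO and staurosporine controls; IC50 from four-parameter logistic fit.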

[2] = biological target: T2, phosphorylated ERBB2 (pERBB2) (Homo sapiens, UniProt P04626); test: Detection of phosphorylated ERBB2 (pERBB2) by ELISA in BT-474 cells; type: cell-based; conditions: four hour incubation with compound
T2 construct: endogenous in cells; host or cells: BT-474
T2 sequence (P04626 23-1255): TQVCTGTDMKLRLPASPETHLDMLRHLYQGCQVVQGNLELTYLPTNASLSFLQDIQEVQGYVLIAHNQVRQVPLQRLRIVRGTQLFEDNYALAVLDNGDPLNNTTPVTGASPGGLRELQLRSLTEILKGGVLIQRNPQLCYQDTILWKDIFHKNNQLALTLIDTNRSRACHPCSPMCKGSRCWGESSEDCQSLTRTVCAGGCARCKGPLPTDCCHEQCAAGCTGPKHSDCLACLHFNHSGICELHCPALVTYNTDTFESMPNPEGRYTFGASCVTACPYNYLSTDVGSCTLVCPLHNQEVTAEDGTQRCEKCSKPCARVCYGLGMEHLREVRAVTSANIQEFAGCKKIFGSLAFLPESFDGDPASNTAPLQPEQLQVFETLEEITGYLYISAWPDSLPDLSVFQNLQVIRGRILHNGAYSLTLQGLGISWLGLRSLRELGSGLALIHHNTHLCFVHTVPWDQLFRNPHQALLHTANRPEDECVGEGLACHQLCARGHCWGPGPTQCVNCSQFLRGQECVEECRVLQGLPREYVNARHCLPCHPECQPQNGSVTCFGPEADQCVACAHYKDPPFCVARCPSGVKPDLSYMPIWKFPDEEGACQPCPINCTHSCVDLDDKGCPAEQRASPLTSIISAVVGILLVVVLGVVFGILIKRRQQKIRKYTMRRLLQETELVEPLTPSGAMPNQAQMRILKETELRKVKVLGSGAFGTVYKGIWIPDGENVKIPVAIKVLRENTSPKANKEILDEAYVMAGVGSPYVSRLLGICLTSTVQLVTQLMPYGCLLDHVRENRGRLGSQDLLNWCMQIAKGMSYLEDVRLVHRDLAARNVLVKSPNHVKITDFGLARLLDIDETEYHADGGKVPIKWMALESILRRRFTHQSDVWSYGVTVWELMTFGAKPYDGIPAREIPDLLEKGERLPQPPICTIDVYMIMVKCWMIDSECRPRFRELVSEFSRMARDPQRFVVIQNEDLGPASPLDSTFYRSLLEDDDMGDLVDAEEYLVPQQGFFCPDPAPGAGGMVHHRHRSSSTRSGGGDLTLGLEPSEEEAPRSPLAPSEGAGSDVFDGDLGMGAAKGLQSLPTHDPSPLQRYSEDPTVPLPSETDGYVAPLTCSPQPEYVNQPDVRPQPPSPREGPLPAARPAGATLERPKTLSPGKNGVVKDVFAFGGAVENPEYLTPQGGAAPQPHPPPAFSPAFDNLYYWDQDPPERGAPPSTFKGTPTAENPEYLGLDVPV
In short: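 BT-474 cells treated 4 h at 37 °C, 5% CO2 with four-fold dilutions (10 μM to 0.01 nM final). Lysates analysed by ELISA for pERBB2, TMB read at OD 450 nm. % relative activity normalised to no-cell (low) and 0.1% DMSO-treated (high) controls.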

SMILES	IC50 [1]	IC50 [2]	GI50 (Ba/F3 ERBB2 YVMA)
CC#CC(=O)N1CCN(c2ccc3ncnc(Nc4ccc(Oc5ccn6ncnc6c5)c(C)c4)c3n2)CC1 [Compound 8, 1-(4-{4-[(3-methyl-4-{[1,2,4]triazolo[1,5-a]pyridin-7-yloxy}phenyl)amino]pyrido[3,2-d]pyrimidin-6-yl}piperazin-1-yl)but-2-yn-1-one]	5.17 µM	0.0271 µM	0.0189 µM
CC#CC(=O)N1CC[C@H](Oc2ccc3ncnc(Nc4ccc(Oc5ccc6c(c5)ncn6C)c(C)c4)c3n2)C1 [Compound 50, 1-[(3S)-3-{[4-({3-methyl-4-[(1-methyl-1,3-benzodiazol-5-yl)oxy]phenyl}amino)pyrido[3,2-d]pyrimidin-6-yl]oxy}pyrrolidin-1-yl]but-2-yn-1-one]	> 10 µM	0.48 µM	0.052 µM
Cc1cc(Nc2ncnc3ccc(N4CCN(C(=O)/C=C/CN(C)C)C[C@@H]4C)nc23)ccc1Cc1ccc2c(c1)ncn2C [Compound 126, (S,E)-4-(dimethylamino)-1-(3-methyl-4-(4-((3-methyl-4-((1-methyl-1H-benzo[d]imidazol-5-yl)methyl)phenyl)amino)pyrido[3,2-d]pyrimidin-6-yl)piperazin-1-yl)but-2-en-1-one]	> 10 µM	0.145 µM	0.0296 µM
CC#CC(=O)N1CC2CCC(C1)N2c1ccc2ncnc(Nc3ccc(Oc4ccn5ncnc5c4)c(C)c3)c2n1 [Compound 26, 1-(8-{4-[(3-methyl-4-{[1,2,4]triazolo[1,5-a]pyridin-7-yloxy}phenyl)amino]pyrido[3,2-d]pyrimidin-6-yl}-3,8-diazabicyclo[3.2.1]octan-3-yl)but-2-yn-1-one]	2.35 µM	0.0355 µM	0.00616 µM
C=CC(=O)N1CCN(c2cc3c(Nc4ccc(Cc5ccn6ncnc6c5)c(C)c4)ncnc3cn2)C[C@H]1C [Compound 52, (R)-1-(4-(4-((4-([1,2,4]triazolo[1,5-a]pyridin-7-ylmethyl)-3-methylphenyl)amino)pyrido[3,4-d]pyrimidin-6-yl)-2-methylpiperazin-1-yl)prop-2-en-1-one]	> 10 µM	0.0506 µM	0.12 µM
C=CC(=O)N1C2CCC1CN(c1ccc3ncnc(Nc4ccc(Cc5ccn6ncnc6c5)c(C)c4)c3n1)C2 [Compound 127, 1-(3-(4-((4-([1,2,4]triazolo[1,5-a]pyridin-7-ylmethyl)-3-methylphenyl)amino)pyrido[3,2-d]pyrimidin-6-yl)-3,8-diazabicyclo[3.2.1]octan-8-yl)prop-2-en-1-one]	2.15 µM	0.0175 µM	0.00437 µM

Stronger by IC50 [1], values ahead:

IC50 [1]	IC50 [2]	SMILES	GI50 (Ba/F3 ERBB2 YVMA)
2 µM	0.0245 µM	C=CC(=O)N1CCN(c2ncc3ncnc(Nc4ccc(Oc5ccc6c(c5)ncn6C)c(C)c4)c3n2)[C@@H](C)C1 [Compound 76, 1-[(3S)-3-methyl-4-[8-({3-methyl-4-[(1-methyl-1,3-benzodiazol-5-yl)oxy]phenyl}amino)-[1,3]diazino[5,4-d]pyrimidin-2-yl]piperazin-1-yl]prop-2-en-1-one]	0.01 µM
1.79 µM	0.0219 µM	Cc1cc(Nc2ncnc3ccc(N4CCN(C(=O)/C=C/CN(C)C)[C@H](C)C4)nc23)ccc1Oc1ccn2ncnc2c1 [Compound 116, (R,E)-1-(4-(4-((4-([1,2,4]triazolo[1,5-a]pyridin-7-yloxy)-3-methylphenyl)amino)pyrido[3,2-d]pyrimidin-6-yl)-2-methylpiperazin-1-yl)-4-(dimethylamino)but-2-en-1-one]	0.0101 µM
0.294 µM	0.00874 µM	C=CC(=O)N1CCN(c2ccc3ncnc(Nc4ccc(Oc5ccn6ncnc6c5)c(C)c4)c3n2)C[C@H]1C [Compound 10, 1-[(2R)-2-methyl-4-{4-[(3-methyl-4-{[1,2,4]triazolo[1,5-a]pyridin-7-yloxy}phenyl)amino]pyrido[3,2-d]pyrimidin-6-yl}piperazin-1-yl]prop-2-en-1-one]	0.00461 µM
